Experimental findings from PMC4820820, “CETSA screening identifies known and novel thymidylate synthase inhibitors and slow intracellular activation of 5-fluorouracil” (Nature Communications, 2016) are described below.

Values joined by “and” are separate entries in the source; they are usually repeats but may differ in a detail not shown here. Equal values may be shown once. Read-outs that look alike come from different tables or passages of the source.

The target in data set [1] is T1, human thymidylate synthase (TS) (Homo sapiens, UniProt P04818).
T1 construct: screening in live, non-engineered cells expressing thymidylate synthase; endogenous in cells; host or cells: K562 (human myelogenous leukemia) cells
Put plainly: ITDRF CETSA at 50 °C, AlphaScreen detection, live K562 cells. Format: cell-based. Conditions: for EC50: 2 h preincubation. Here is the method: For the […] experiments 11-point dose-response curves with three-fold difference in concentration between wells were generated using the Bravo liquid handling system (all serial dilutions were done in 100% DMSO). […] The concentration of DMSO was 0.5% in all samples. […] The assay ready plates were prepared as outlined above for the screen.
(§1) The screen procedure started with the addition of 5 μl of a suspension of K562 cells at a density of 10 million cells per ml to all wells of a 384 well hardshell PCR plate (HSR480, BIORAD) using an electronic multichannel pipette (Biohit). […] For the time-course experiments the incubation times were altered to include also 10 min, 30 min and 6 h. […] After the incubation step the plates were transiently heated at 50 °C for 3 min followed by a controlled cooling to 20 °C for 1 min using a real-time PCR machine (LightCycler480 system, Roche). Plate handling was then as described above for the thermal aggregation experiments. The data were analyzed using microsoft excel and GraphPad Prism 6.
(§2) A calculation of the average and standard error of means for each set of controls also allowed an illustration of how these responses varied over the 32 screening plates. The Z′ factor[38] is commonly used as a measure of how well the assay separates between the controls and this was calculated as described based on the calculated averages and standard deviations of the controls on a per plate basis. For the Tagg shift and the […] experiments the data were analyzed in GraphPad Prism using the Boltzmann sigmoid equation and the saturation binding curve (rectangular hyperbola; binding isotherm) function, respectively. As already discussed[14] these methods make use of equilibrium models for data analysis although the methodology depends on the irreversible aggregation of denatured material. For this reason we refer to the observed responses as apparent and isothermal dose-response fingerprints and are careful with any quantitative interpretations, being well aware of their dependency on experimental conditions. Experiments are on-going to address the quantitative interpretation of CETSA data.

In data set [2] the target is T1, human thymidylate synthase (TS). Put plainly: CETSA primary screen / single-concentration retest, AlphaScreen, live K562 cells. The data set is classed as cell-based. Particulars: for % stabilization in screen at 50 µM: K562, 2 h, read-out: % stabilization in screen. Here is the method:
Compounds were placed in columns 1–22. […] At the day of the experiment the plates were allowed to thaw for 30 min followed by a brief centrifugation step (1,000 × g for 1 min) prior to removal of the seal. The compounds were then diluted with 20 μl supplemented cell culture medium using a Multidrop Combi reagent dispenser (Thermo Scientific). Finally 5 μl of the diluted compounds were transferred to a 384 well hardshell PCR plate (HSR480, BIORAD) using a Bravo liquid handling platform equipped with a 384-well head (Agilent). […] The final concentration of DMSO in the assay was 0.5% in all samples.
as §1, §2
(In general: In Alpha technology, singlet oxygen from a donor bead excites a nearby acceptor bead.)

Data set [3] can be described thus: Intracellular compound and metabolite concentrations by LC-MS/MS in K562 cells. The data set is classed as in vitro ADME, human. Particulars: K562 cells incubated with 100 µM 5-FU, first 6 h. Here is the method: Intracellular concentrations of compounds were measured as previously described. Briefly, K562 cells were incubated with the compounds for a predefined time at 37 °C in a 5% CO2 atmosphere. After incubation, the cells were centrifuged (300 × g for 5 min) and a medium sample (supernatant) was collected and diluted 1:10 in a 50 nM warfarin solution (internal standard). The cells were washed with phosphate buffered salt solution and lysed with methanol. Methanol was evaporated and the cell samples were reconstituted in 50 nM warfarin. Samples were analyzed with LC–MS/MS with electrospray ionization in negative mode with transitions monitored as listed in Table 2.

The target of the next data set is TS (Homo sapiens, UniProt P04818). The data set can be described thus: Thermal shift in vitro assay on recombinant protein. Format: binding. Further details: His6 tag with TEV site (vector-encoded by pNIC28-Bsa4); made in house; host or cells: Rosetta BL21-DE3 Escherichia coli. Particulars: nucleoside without enzyme treatment. Here is the method: The assay was performed on the iCycler iQ Real Time PCR Detection System (Bio-Rad), using the 96-well thin-wall PCR plate (Bio-Rad). The experiment was conducted in a buffer containing 20 mM HEPES at pH 7.5 and 150 mM NaCl. A total volume of 25 μl solution containing 0.2 mg ml^−1 protein, compounds and × 5 Sypro Orange dye (Invitrogen) diluted from 5,000 × stock was dispensed into the 96-well plate. The same amount of DMSO was added in the control wells. The plates were sealed with Microseal B adhesive sealer (Bio-Rad) and heated in iCycler from 25 to 80 °C (56 heating cycles in 28 min). Fluorescent filter used for Sypro Orange measurements was λexcitation=492 nm and λemission=610 nm. The calculation of the midpoint of the curves (Tm) was performed using the software package XLfit from IDBS within microsoft excel.
Decitabine at a concentration of 1 mM was incubated with 1 mg ml^−1 of recombinant DCK and 2.5 mM ATP in a buffer of 50 mM Tris at pH 7.5, 150 mM NaCl and 0.5 mM MgCl2 at room temperature for 60 min to generate the corresponding monophosphates. To probe for nucleotide deamination the samples were further treated with 1 mg ml^−1 of recombinant DCTD in the presence of 1 mM ATP and 10 μM ZnCl2 for 20 min at room temperature. After incubation, the samples were heated at 95 °C for 10 min and centrifuged for 10 min at the highest speed at 4 °C using a benchtop centrifuge. The supernatant was tested without dilution in thermal shift in vitro assays and the TS enzyme inhibition assay. The supernatants from samples without nucleoside were used as the treatment controls.

Data set [4] deals with T1, human thymidylate synthase (TS). Put plainly: CETSA Tagg curves, AlphaScreen detection, live K562 cells. The data set is classed as cell-based. Particulars: 2 h preincubation, 3 min heating, DMSO control 46.7±0.2 °C. Here is the method:
The data were analyzed using microsoft excel and GraphPad Prism 6.
as §2

[5] abbreviates: 50 °C, unit taken from curve axis log [cmp] (M), read-out: ITDRF CETSA (hit confirmation).
The mark [6] stands for this setting: 50 μM compound, 2 h preincubation, 50 °C, 0% = DMSO, 100% = 100 nM raltitrexed.

Sequence of TS (P04818 whole entry): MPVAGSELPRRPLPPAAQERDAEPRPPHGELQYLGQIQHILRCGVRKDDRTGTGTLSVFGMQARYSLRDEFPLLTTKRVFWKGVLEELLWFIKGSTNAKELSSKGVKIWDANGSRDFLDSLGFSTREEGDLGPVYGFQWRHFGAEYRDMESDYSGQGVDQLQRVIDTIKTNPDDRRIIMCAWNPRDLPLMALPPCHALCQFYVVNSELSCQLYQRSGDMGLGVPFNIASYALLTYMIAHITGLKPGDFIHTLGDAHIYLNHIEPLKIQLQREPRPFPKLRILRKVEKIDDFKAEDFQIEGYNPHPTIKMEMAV
T1 sequence (P04818 2-313 limits assumed): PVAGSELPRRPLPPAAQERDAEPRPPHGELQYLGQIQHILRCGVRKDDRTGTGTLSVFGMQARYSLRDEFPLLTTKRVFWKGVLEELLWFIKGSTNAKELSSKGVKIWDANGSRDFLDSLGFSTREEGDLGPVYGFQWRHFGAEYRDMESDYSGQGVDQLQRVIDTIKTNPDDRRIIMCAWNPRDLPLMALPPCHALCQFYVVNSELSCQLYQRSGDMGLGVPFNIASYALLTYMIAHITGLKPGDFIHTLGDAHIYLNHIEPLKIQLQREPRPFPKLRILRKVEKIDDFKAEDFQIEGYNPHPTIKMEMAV

With `O=c1[nH]c(=O)n([C@@H]2O[C@H](CO)[C@@H](O)[C@H]2O)cc1F` [5-fluorouridine], the EC50 in data set [1] (50 °C for 3 min, read-out: […] EC50 (half-maximal stabilization of TS)) came to 4.7e-08 ± 1.5e-08 M.

With `CCc1nc(N)nc(N)c1-c1ccc(Cl)cc1` [CBK041886, Pyrimethamine, reference compound], the % stabilization in screen at 50 µM in data set [2] worked out at 76%. Moreover, the EC50 in data set [1] (setting [5]) is 8.38e-06 M.

In the case of `CC#Cc1cn([C@H]2C[C@@H](O)[C@@H](CO)O2)c(=O)[nH]c1=O` [CBK201182], the “% stabilization in screen” value in data set [2] (setting [6]) is recorded as 90%. Also, the EC50 in data set [1] (setting [5]) was determined as 2.28e-05 M.

`Cc1cc(C)c(Oc2nc(=O)n([C@H]3C[C@@H](O)[C@@H](CO)O3)cc2F)c(C)c1` [CBK201184]: the “% stabilization in screen” value in data set [2] (setting [6]) is 66%. Moreover, the EC50 in data set [1] (setting [5]) came out at 9.17e-06 M.

Turning to `C#Cc1cn([C@H]2C[C@H](O)[C@@H](CO)O2)c(=O)[nH]c1=O` [CBK201207, 5-ethynyl-2′-deoxyuridine, reference compound], in data set [2] (setting [6]), the % stabilization in screen at 50 µM was found to be 102%. Besides, the EC50 in data set [1] (setting [5]) amounted to 1.41e-09 M.

`Nc1nc(=O)n([C@H]2C[C@@H](O)[C@@H](CO)O2)cc1O` [CBK201221]: the “% stabilization in screen” value in data set [2] (setting [6]) came out at 22%. In addition, the EC50 in data set [1] (setting [5]) is 3.43e-07 M.

Turning to `COCc1cn(C2CC(O)C(CO)O2)c(=O)[nH]c1=O` (centres unmarked) [CBK201230], the “% stabilization in screen” value in data set [2] (setting [6]) was 23%. Further, the EC50 in data set [1] (setting [5]) was 1.42e-07 M.

On to `CCOc1nc(=O)c(C)cn1C1CC(O)C(CO)O1` (centres unmarked) [CBK201334], for which the “% stabilization in screen” value in data set [2] (setting [6]) is -1%.

In the case of `COC(=O)/C=C/c1cn(C2OC(CO)C(O)C2O)c(=O)[nH]c1=O` (centres unmarked) [CBK201339], the “% stabilization in screen” value in data set [2] (setting [6]) is reported as -1%.

As to `O=c1[nH]cc(F)c(=O)[nH]1` [Compound 5-FU, 5-fluorouracil], in data set [2], the % stabilization in screen at 50 µM was 48%. Further, in data set [1] (50 °C for 3 min, read-out: […] apparent EC50), the EC50 worked out at 1.9e-05 ± 4e-06 M. Also, the “intracellular levels of FdUMP” value in data set [3] is recorded as “undetectable”.

`O=c1[nH]c(=O)n([C@H]2C[C@H](O)[C@@H](CO)O2)cc1C(F)(F)F` [TFT, 5-trifluoro-2′-deoxythymidine]: the % stabilization in screen at 50 µM in data set [2] turned out to be 66%. Besides, the EC50 in data set [1] (setting [5]) stood at 3.18e-10 M. On TS, the “stabilization of recombinant TS in thermal shift assay” value was “did not stabilize”.

For the compound `O=c1ccn([C@H]2C[C@H](O)[C@@H](CO)O2)c(=O)[nH]1` [deoxyuridine], the “stabilization of recombinant TS in thermal shift assay” value at TS is given as “did not stabilize”.

As to `O=c1[nH]c(=O)n([C@H]2C[C@H](O)[C@@H](CO)O2)cc1F` [floxuridine, 5-fluorodeoxyuridine], the % stabilization in screen at 50 µM in data set [2] (setting [6]) came out at 64%. For the same compound, the “concentration giving stabilization of TS (CETSA)” value in data set [1] (10 min of pre-incubation) was “low nM”. The EC50 in data set [1] (setting [5]) was 6.61e-11 M; in data set [1] (ITDRFCETSA EC50 (half-maximal stabilization of TS), 50 °C for 3 min, read-out: […] EC50 (half-maximal stabilization of TS)), 6.5e-11 M and 4.7e-11 M. The “stabilization of recombinant TS in thermal shift assay” value on TS was “did not stabilize”. Also, the “apparent Tagg of TS” value in data set [4] (15 μM floxuridine) was “above 65 °C”.

With `Cc1nc2ccc(CN(C)c3ccc(C(=O)N[C@@H](CCC(=O)O)C(=O)O)s3)cc2c(=O)[nH]1` [raltitrexed], the “apparent Tagg of TS” value in data set [4] (1 μM raltitrexed) was “above 65 °C”.
